Assay results reported in publication PMC6765138 (Nucleic Acids Research, 2019).

Key:
MtPrpR81–486 = biological target: T1, MtPrpR81–486 (Mycobacterium tuberculosis, UniProt O06581)
T1 construct: gene prpR

SEC = biological target: the molecule itself; assay: SEC

CC(C)(COP(=O)(O)OP(=O)(O)OC[C@H]1O[C@@H](n2cnc3c(N)ncnc32)[C@H](O)[C@@H]1OP(=O)(O)O)[C@@H](O)C(=O)NCCC(=O)NCCS [Coenzyme A]
X-ray crystal structure of co-purified ligand; LC-HRMS of extracted ligand (MtPrpR81–486): the predominant CoA was built into all protein chains

B1: MtPrpR_(81–486) (Mycobacterium tuberculosis PrpR, Rv1129c, residues 81-486, N-terminal His6-tag) (domain or fragment)
chain: DARLVADLSDVFTDIGVEHAVSGAQIEEFVARMPEVGHSLVAVHRRLRAATEELEGYRSRATAETELPPARPMPFEEVRDFFYDRNNYIHDLDMAAERMFTESGMRTGGLDIQLAELMRDRFGISVVIDDNLPDTAKRRYHPDTKVLRVAHWLMPGQRAFQIATQLALVGQSDLISSIVATDDQLSTEARGVARIGLANYFAGAFLLPYREFHRAAEQLRYDIDLLGRRFGVGFETVCHRLSTLQRPRQRGIPFIFVRTDKAGNISKRQSATAFHFSRVGGSCPLWVVHDAFAQPERIVRQVAQMPDGRSYFWVAKTTAADGLGYLGPHKNFAVGLGCDLAHAHKLVYSTGVVLDDPSTEVPIGAGCKICNRTSCAQRAFPYLGGRVAVDENAGSSLPYSSTEQSV
notes: also called native PrpR_(81–486); wild-type MtPrpR_(81–486); not shown: His6, N-terminal, kept
stoichiometry N (SEC): 4
